# Values of other authors in US8044020B2, “Pharmaceutical compositions and methods for insulin treatment” (CPEX Pharmaceuticals, Inc., priority 2003, dated 2011).
# Conditions: beagles; previously determined (Hseih, 1993)
smiles,measurement,value
O=C1CCCCCCCCCCCCCCO1 [Cyclopentadecanolide],effect on migration of insulin through the nasal mucosa,facilitates the migration of insulin through the nasal mucosa
